# Experimental data: patent publication US10934355B2, “Methods and compositions for the prevention and treatment of surgical adhesions” (The Board of Trustees of the Leland Stanford Junior …, priority 2016, dated 2021)
# “Also recorded” adds a separate entry of the source.
# Key:
# Assay type in all cases: in vivo, mouse
# [1] = system: adhesion formation in wild type C57BL/6J mice; experiment: Adhesion induction (ischemic button) with HIF1A small molecule inhibitor treatment, adhesion scoring; details: for adhesion formation: C57BL/6J mice, cryptotanshinone 200 mg/kg, FM19G11 2 mg/kg, echinomycin 10 or 20 ug/kg, PX12 25 mg/kg, immediately after injury, 4 hours after, then every 24 hours for 7 days, scored after 7 days; for adhesion score in a majority of the treated mice: scale 0-5, PX12 n=5, echinomycin n=15, 7 days after induction
# Description: (§1) Adhesion induction surgeries were done on wild type B6 (C57BL/6J (The Jackson Laboratory) mice aged 6-10 weeks. Mice were anesthetized by inhaled isoflurane until determined unconscious confirmed by toe-pinch test. The abdomen was disinfected with betadine and phosphate buffered saline (PBS). A left mid-clavicular incision was made in the skin running down the length of the mouse. A similar left-mid clavicular incision was made in the peritoneum running down the length of the peritoneum. The peritoneum was gently folded to the right and held down by a hemostat. A single, ischemic button was placed on the right half of the peritoneal wall by clamping a small (−5 mm diameter) piece of peritoneum and ligating the base with a 4-0 silk suture (Ethicon, 683G). Light abrasion on the button (24 times) and on the adjacent liver, cecum, and small and large bowels (7 times) was optionally performed (depending on the desired adhesion severity) with a surgical brush. Light brushing with fewer repetitions was performed to avoid pinpoint bleeding. The peritoneum was closed using 4-0 silk sutures and the skin was stapled closed (EZ Clips, 9 mm, Braintree Scientific Inc). Mice were allowed to recover on a heating pad and injected with 0.05-0.1 mg/kg of buprenorphine. Mice were followed closely and monitored daily for signs of morbidity for 7 days until euthanasia. Adhesed tissues were dissected, scored, and fixed in 2% paraformaldehyde overnight at 4 degrees.
# In functional studies we assign a single score for an adhesion, based on the criteria detailed in the text above, taking into consideration both surface area contact and molecular makeup. […] We have observed adhesion areas with high surface area contact (a score of 3 or 4) with little or no collagen or macrophage involvement (F4/80-). Conversely, we have also observed adhesion areas with low surface area contact (a score of 2) with high collagen and macrophage infiltration. In these cases we will score adhesions based on surface area contact or number of organs involved, as we predict this is a more significant indicator of clinical outcome.
# Adhesion induction surgeries were performed on 4-8 week old wild type B6 (C57BL/6J (The Jackson Laboratory) as previously described. 200 mg/kg of cryptotanshinone (Sigma Aldrich), 2 mg/kg of FM19G11 (Sigma Aldrich), 10 ug/kg or 20 ug/kg of echinomycin (Sigma Aldrich), or 25 mg/kg of PX12 (Sigma Aldrich) immediately after injury, 4 hours after injury, and every 24 hours subsequently for 7 days.
# Adhesions were induced in wild type C57BL/6J mice using the method described above, with different intensity and scope of abrasions to induce a range of adhesion severity. These mice were allowed to recover for seven days before their adhesions were scored.
# In our scheme, an adhesion with a score of 0 has no adhesion between two areas, with limited mesothelial thickening on the button (FIG. 3A). The area stains positive for MSLN and fibronectin (FIG. 3A). Mice with an adhesion score of 0 had no signs of morbidity and survived the 7 day recovery period (n=25). An adhesion score of 1 indicated a “string” adhesion, connecting the two adhesed areas with a light fibrous bridge (FIG. 3B). The string and surrounding areas were immunopositive for MSLN and fibronectin (FIG. 3B). Most mice with an adhesion score of 1 had no signs of morbidity and survived the 7 day recovery period (n=11).
# All adhesions with scores of 2 or above involve a single direct contact between two tissues. […]
# HIF1A = experiment: Immunofluorescence staining of mesothelium surrounding buttons after inhibitor treatment; details: 7 days after induction and treatment; control adhesions positive for PDPN, MSLN and HIF1A
# Protocol: Immunofluorescence studies were performed on frozen sections. Frozen sections were thawed at room temperature for ten minutes and washed in PBS twice. Slides were blocked in 5% serum for 30 minutes at room temperature. Sections were subsequently stained with primary antibodies against PDPN (1:100, mouse monoclonal, Abcam), MSLN (1:200, rabbit monoclonal, ABBIOTEC), fibronectin (1:100, rabbit monoclonal, Abcam), F4/80 (1:100, rat monoclonal, Abcam), CD31 (1:100, rabbit monoclonal, Abcam), pan-collagen (1:100, rabbit polyclonal, Abcam), WT1 (1:100, rabbit polyclonal, Abcam), CD44 (1:100, rabbit polyclonal, Abcam), HIF1A (1:100, mouse monoclonal), and S100A4 (1:100, rabbit polyclonal, Abcam), overnight at 4 degrees, and washed three times in PBS. Slides were stained were incubated with secondary antibodies conjugated to Alex Fluor 488, 594, or 647 for one to two hours at room temperature. Stains were washed once with PBST and three times with PBS before nuclear staining with Hoechst 33342 (Life Technologies), for two minutes and mounted with Fluoromount G (Southern Biotech).
# To explore whether inhibiting the HIF1A pathway in vivo can prevent adhesion formation, we treated mice that had undergone adhesion induction with small molecular inhibitors against HIF1A or its immediate downstream cascade. […] Mice were euthanized after 7 days and their adhesions were imaged and scored.
# [2] = system: HIF1A and mesothelial target genes in injured mesothelial cells; experiment: RNA sequencing of sorted injured mesothelium after echinomycin treatment
# Protocol: A modified adhesion induction surgery was done according to previously described procedures on wild type C57BL/6J (The Jackson Laboratory). Two ischemic buttons were placed on each side of the peritoneum and no abrasion of the button or abdominal organs was done. Mice were allowed to recover for 6, 12, or 24 hours and euthanized. Ischemic buttons were dissected by cutting the base and placed in dissociation media (DMEM (Life Technologies, 10565-042), 50 mg/ml collagenase IV (Worthington Biochemical), 20 uM CaCl2). Buttons were homogenized using a single edge blade (Razor Blade Company), and incubated in dissociation media for 30 minutes at 37 C. The subsequent cell suspension was filtered through a 100 um filter and spun and washed with 2% fetal bovine serum (FBS) in PBS. Cells were treated with 1 ml of ACK lysis buffer (Life Technologies) for 5 minutes at 4 C and spun and washed. Cells were blocked with 1% goat serum (Life Technologies) for 10 minutes and stained with anti-PDPN (BioLegend, 8.1.1, 1:100), anti-LYVE-1 (eBioscience, ALY-7, 1:100), anti-CD31 (eBioscience, 390, 1:100), and anti-CD45 (BioLegend, 30-F11, 1:100) for 30 minutes at 4 C. Cells were spun down, filtered, and resuspended in 200 µl of 2% FBS in PBS. Cells were run through a FACSAria (BD Bioscences) and PDPN+LYVE1-CD31-CD45- cells were sorted directly into 750 ul of Trizol LS (Life Technologies).
# Total RNA from sorted mesothelial population was isolated using Trizol (ThermoFisher) as per manufacturer's recommendation and was facilitated by addition of linear polyacrylamide (Sigma) as a carrier during RNA precipitation. Purified total RNA was treated with 4 units of RQ1 RNase-free DNase (Promega) at 37° C. for 1 hour to remove trace amounts of genomic DNA. The DNase-treated total RNA was cleaned-up using RNeasy micro kit (QIAGEN). 10-50 ng of total RNA was used as input for cDNA preparation and amplification using Ovation RNA-Seq System V2 (NuGEN). Amplified cDNA was sheared using Covaris S2 (Covaris) using the following settings: total volume […], duty cycle 10%, intensity 5, cycle/burst 100, total time 2 min. The sheared cDNA was cleaned up using Agencourt Ampure XP (Beckman Coulter) to obtain cDNA fragments>=400 base pairs (bp). 500 ng of sheared and size-selected cDNA were used as input for library preparation using NEBNext Ultra DNA Library Prep Kit for Illumina (New England BioLabs) as per manufacturer's recommendations. Resulting libraries (fragment distribution: 300-700 bp; peak 500-550 bp) were sequenced using HiSeq 4000 (Illumina) to obtain 2×150 base pair paired-end reads. The reads obtained were trimmed for base call quality and the presence of adapter sequences using Skewer (ref). High quality reads thus obtained were aligned to mouse genome using OLego (ref) and the levels of expressed mRNAs were estimated using cuffdiff2 (ref) and represented as fragments per kilo-base per million mapped reads (FPKM).
# To broadly determine the causative transcriptional changes in injured mesothelial cells downstream of HIF1A inhibition, we treated 10 wild type C57BL/6J mice with (20 ug/kg) of echinomycin prior to and immediately following adhesion induction via placement of four ischemic buttons. Using a similar method as outlined above, we isolated the damaged mesothelium from buttons, sorted and isolated their RNA for sequencing.
# [3] = system: adhesion formation in mice; experiment: Adhesion induction with neutrophil/monocyte modulating treatments, adhesion score (Example 2); details: for adhesion formation (adhesion score), pre-treatment: treated 24 hours prior to adhesion induction
# Description: as §1
# Peritoneal washes from similar time points confirmed that increased numbers of neutrophils and macrophages enter the peritoneum.
# adhesions in mice = experiment: Pre-treatment 3 days prior to adhesion induction surgery, adhesion severity scale 0-5 (Example 3); details: pre-treated 3 days prior to surgery, evaluated 7 days post injury, versus PBS control
# Description: as §1, with “Light abrasion on the button (24 times) and on the adjacent liver, cecum, and small and large bowels (7 times) was optionally performed (depending on the desired adhesion severity) with a surgical brush. Light brushing with fewer repetitions was performed to avoid pinpoint bleeding. The peritoneum was closed using 4-0 silk sutures and the skin was stapled closed (EZ Clips, 9 mm, Braintree Scientific Inc). Mice were allowed to recover on a heating pad and injected with 0.05-0.1 mg/kg of buprenorphine.” left out
# Mice were pre-treated with either PLGA, thioglycollate, or PBS control 3 days prior to adhesion induction surgery as described in Example 1. Mice were evaluated 7 days post injury and evaluated on an adhesion severity scale from 0-5 for adhesions forming on the suture site (S) or the button (B). […]
compound,measurement,setting,value
Cc1ccc(C(=O)COC(=O)c2cccc(NC(=O)c3ccc([N+](=O)[O-])cc3[N+](=O)[O-])c2)cc1 [FM19G11],adhesion formation,[1],reduce adhesion formation
CCC(C)SSc1ncc[nH]1 (stereo not shown) [PX12],adhesion formation,[1],significantly reduced; also recorded: dramatic decrease in adhesion formation and frequency; also recorded: significant decreases in adhesion formation; also recorded: reduce adhesion formation
same,adhesion score in a majority of the treated mice,[1],0
same,HIF1A immunofluorescence staining of mesothelium surrounding the buttons / adhesions,HIF1A,stained with only MSLN and PDPN
CS[C@H]1SC[C@H]2C(=O)N(C)[C@@H](C(C)C)C(=O)OC[C@@H](NC(=O)c3cnc4ccccc4n3)C(=O)N[C@@H](C)C(=O)N(C)[C@@H]1C(=O)N(C)[C@@H](C(C)C)C(=O)OC[C@@H](NC(=O)c1cnc3ccccc3n1)C(=O)N[C@@H](C)C(=O)N2C [echinomycin],adhesion formation,[1],significantly reduced; also recorded: dramatic decrease in adhesion formation and frequency; also recorded: significant decreases in adhesion formation; also recorded: significantly reduces the formation of adhesions
same,adhesion score in a majority of the treated mice,[1],0
same,HIF1A immunofluorescence staining of mesothelium surrounding the buttons / adhesions,HIF1A,stained with only MSLN and PDPN
same,"ITGAM, ITGB1, and ITGB2 gene expression after HIF1A inhibition",[2]; 20 ug/kg echinomycin,little difference in gene expression
same,"PDPN, MSLN, and S100A4 expression after treatment",[2]; 20 ug/kg echinomycin,increased in expression
same,UPK1B and WT1 expression levels after treatment,[2]; 20 ug/kg echinomycin,dropped significantly
same,number of genes normally upregulated along the 24 hour time course that were decreased with HIF1A inhibition,[2]; 20 ug/kg echinomycin,over 200 genes
same,number of genes with little or decreased expression during the 24 hour time course that were upregulated by HIF1A inhibition,[2]; 20 ug/kg echinomycin,over 600 genes
same,expression of known HIF1A targets VEGFb and transferrin (TRF),[2]; 20 ug/kg echinomycin prior to and immediately following adhesion induction,downregulated
Catalase,"adhesion formation (adhesion score), pre-treatment",[3],worsens adhesion formation
"MCP-1: monocyte chemoattractant protein-1, a known monocyte chemoattractant",side effects in animals,"[3]; MCP-1 administration (e.g., intraperitoneally) in animal models",little or no side effects
same,"adhesion formation (adhesion score), post-surgery treatment",[3]; treated for three days following adhesion induction surgery,diminish adhesion formation; also recorded: substantial reduction in adhesion grades
thioglycollate,severity of adhesions at the button (B),adhesions in mice,significantly reduced severity of adhesions
same,severity of adhesions at the suture site (S),adhesions in mice,significantly reduced severity of adhesions
same,"adhesion formation (adhesion score), pre-treatment",[3],diminished adhesions
